Values of other authors, collected in patent US20080268488A1, “Screening Method for Dnak Inhibitors” (priority 2005, published 2008).
No end group written: not given here.

Details: aminopeptidase and carboxypeptidase cleavage products observed

| Sequence | susceptibility to proteolytic degradation in the presence of mammalian serum |
| --- | --- |
| GKPRPYSPRPTSHPRPIRV [drosocin, Gly-Lys-Pro-Arg-Pro-Tyr-Ser-Pro-Arg-Pro-Thr-Ser-His-Pro-Arg-Pro-Ile-Arg-Val] | highly susceptible to proteolytic degradation |
| VDKGSYLPRPTPPRPIYNRN [pyrrhocoricin] | highly susceptible to proteolytic degradation |
